Data from patent publication US9783849B2, “Method for identifying immunoreactive peptides” (immatics biotechnologies GmbH, priority 2002, dated 2017).

Assays:
[1] = test system: CD8+ T-lymphocytes (PBMC); test: staining of PBMC with HLA-A*0201 tetramers, flow cytometry; type: cell-based, human
Description: Peripheral blood mononuclear cells (in the following PBMC) from two healthy donors (HDI and HD2), which were serologically typed as CMV-positive, were isolated by gradient centrifugation (FicoLite H) and frozen.
HLA-A *0201 tetrameric complexes were produced as described by Altman et al., 1996, Phenotypic analysis of antigen-specific T-lymphocytes, Science 274: 94-96, as follows: The HLA-A2-binding peptides used for the refolding were […] (SEQ ID NO: 1) from keratin 18 and […] (SEQ ID NO: 2) from pp65 HCMVA. Tetramers were assembled by mixing biotinylated monomers with streptavidin-PE or streptavidin-APC and 2-3×10^6 cells were incubated 30 min at 4° C. with both tetramers: 10 μg/ml for each monomer in PBS, 0.01% NaN3, 2 mM EDTA, 50% fetal calf serum). Then, monoclonal antibodies Anti-CD4-FITC (Coulter-Immunotech) and Anti-CD8-PerCP (Becton Dickinson) were added for 20 min. After three washes, samples were fixed in FACS buffer, 1% formaldehyde. Four-color analysis was performed on a FACScalibur cytometer (Becton Dickinson).
Staining of PBMC of tumor patients and healthy individuals with HLA-A*0201 tetramers was performed with tetramers reconstituted either with adipophilin, keratin 18 or met-proto-oncogene.
Dot plots show samples from one of three independent experiments for 1×10^6 PBMC. In the plots, percentage of tetramer^+-cells within the CD8^+ CD4^− population are indicated.

[2] = test system: CD8+ T-cells (PBMC from HLA-A2 positive renal cell carcinoma patients); test: quantitative PCR assay of γ-Interferon-mRNA production after 7 day in vitro sensitization with peptide; type: cell-based, human; details: PBMC from 6 HLA-A2 positive renal cell carcinoma patients
Method: PBMC from 6 HLA-A2 positive renal cell carcinoma patients were tested for reaction against four of the relevant peptides: HLA-A*02-restricted ligands from adipophilin, keratin 18, K1AA0367 and met-proto-oncogene. In doing so, a very sensitive quantitative PCT assay was carried out to detect γ-Interferon-mRNA production by CD8^+ T-cells following a 7 day-in vitro-sensitization with peptide.

Row | Sequence | staining of the keratin 18-specific CD8+ population with the tetramer ([1]; simultaneous staining with HLA-A2/keratin 18-PE and HLA-A2/CMV-APC tetramers, specificity control) | γ-Interferon-mRNA production by CD8+ T-cells (response to peptide) [2] | healthy individuals in whom a significant specific CD8+ T-lymphocyte population was found ([1]; HLA-A*0201 tetramer staining of PBMC of healthy individuals)
1 | NLVPMVATV [CMV tetramer, reference compound] | did not stain | – | –
2 | YVDPVITSI (listed as Homo sapiens) [met-proto-oncogene, HLA-A*02-restricted ligand derived from met proto-oncogene] | – | Sporadic responses | –
3 | ALLNIKVKL (listed as Homo sapiens) [keratin 18] | – | Sporadic responses | 4 out of 22
4 | SVASTITGV (listed as Homo sapiens) [adipophilin, HLA-A*02-restricted ligand from adipophilin] | – | Sporadic responses | –
